# Structures can show the parent of a compound that is named as a salt.
# Legend:
# [1] = Two-chamber release test of model drugs from hydrogel laminate; format: physicochemical; settings: for dye leakage through the laminate into the opposite chamber: absorbance at 550 nm and 630 nm in both chambers; for power law release exponent: release from hydrogel layers of the laminate into DI water, Fickian release
# Text: A two-chamber diffusion device was made using cast acrylic plates (McMaster Carr), and small magnetic stir bars and stir plates (VWR International) were used for stirring. For the diffusion tests, a 3cm×3 cm hydrogel, elastomer, or impermeable hydrogel laminate sample was placed between the chambers and screwed together tightly to prevent leakage from the chambers. A 5.0×10−4 M rhodamine B solution (Sigma-Aldrich R6626) was placed on one chamber while DI water was placed in the opposite chamber, and 1 mL aliquots were taken every 10 min and placed in a disposable cuvette. Absorbance was measured using a spectrophotometer (BioMate 3S, ThermoFischer Scientific) and converted to concentration using calibration curves of solutions with known concentrations. The setup for release experiments was identical except both chambers initially contained DI water with rhodamine B and green food dye (Fast green FCF, Sigma-Aldrich F7252) being released from the hydrogel. For rhodamine diffusion and release, a wavelength sweep was performed to determine the maximum absorbance, which occurred at 550 nm. The calibration curve was constructed by measuring absorbance of standard solutions in the 0-50×10−6 m range. For green food dye release, the maximum absorbance occurred at 630 nm. The calibration curve was constructed by measuring absorbance of standard solutions in the 0-200 ppm range.
# Taking advantage of the impermeability of the hydrogel-elastomer laminate, the possibility of releasing different molecules from the two sides of the hydrogel sheets in the laminate was tested. Green food dye (Fast Green FCF, Sigma-Aldrich) and rhodamine B were used as model drugs and were loaded into the opposing two hydrogel sheets in the hydrogel-elastomer laminate structure. […] The concentrations of green food dye and rhodamine B in the solutions of both chambers were measured over time using absorbance measurements. […] Since the dyes used have absorbance maximums at different wavelengths (550 nm and 630 nm), it was possible to detect dye leakage through the impermeable hydrogel-elastomer laminate by monitoring the absorbance signals at the two wavelengths in both chambers.
# [2] = test system: Escherichi coli strain expressing green fluorescent protein; experiment: Bacterial adhesion testing; format: cell-based; settings: 24 hour incubation; FIG. 4; streptomycin sulfate 0.1 wt %
# Text: The high robustness and stretchability of the hydrogel-elastomer laminates allows for proper functioning of the devices under stresses and deformations. […] In addition, the lubricious and highly hydrated hydrogel coating surfaces provided by the present invention are capable of improving protein adsorption, anticlotting and foreign-body reaction of the device as compared to an uncoated device. Moreover, the coating protocol of the present invention can be designed to include therapeutic agents in the hydrogel coating and/or to introduce hydrogel components with known biological responses such as PEG, hyaluronic acid, and zwitterionic groups.
# An engineered Escherichi coli strain expressing green fluorescent protein was cultured in a 24-well plate above 8 mm round samples of latex, glass or swollen hydrogel laminate (PAAm-ALG and PAAm-CHI, as described previously). Streptomycin sulfate (Sigma-Aldrich S9137) was added to the two laminate formulations, at a final concentration of 0.1 wt %. After incubating at 37° C. for 24 h, the samples were removed, rinsed with PBS to remove free-floating bacteria, and imaged with a fluorescent microscope (Nikon Eclipse LV100ND).
Structure (SMILES),dye leakage through the laminate into the opposite chamber [1],power law release exponent [1],effect on antibacterial action of the hydrogel laminates [2]
"CCN(Cc1cccc(S(=O)(=O)[O-])c1)c1ccc(C(=C2C=CC(=[N+](CC)Cc3cccc(S(=O)(=O)[O-])c3)C=C2)c2ccc(O)cc2S(=O)(=O)[O-])cc1.[Na+].[Na+] [Green food dye, Fast Green FCF]",No green food dye was detected in the rhodamine chamber,0.5,
"[H]/N=C(/N)N[C@H]1[C@H](O)[C@@H](O)[C@H](O[C@@H]2O[C@@H](C)[C@](O)(C=O)[C@H]2O[C@@H]2O[C@@H](CO)[C@H](O)[C@@H](O)[C@@H]2NC)[C@@H](N/C(N)=N\[H])[C@@H]1O [antibiotic, Streptomycin sulfate]",,,improve the antibacterial action
CCN(CC)c1ccc2c(-c3ccccc3C(=O)O)c3ccc(=[N+](CC)CC)cc-3oc2c1 [rhodamine B],vice versa,0.5,

# From patent publication US20190125934A1, “TOUGH HYDROGEL COATING AND METHOD OF MANUFACTURE” (Massachusetts Institute of Technology, priority 2017, published 2019)
